According to patent US4223146A, “4,5,6,7-Tetrahydroimidazo-[4,5-c]-pyridine derivatives” (Farmitalia Carlo Erba S.p.A., priority 1978, dated 1980):
Where two headings read alike, the source gives them in different places.

Tests used:
[1] = Anticholinergic Activity in Rats; set-up: species or system Sprague-Dawley rats (male); details: rat, in vivo
Protocol: (3) Anticholinergic Activity in Rats. Considering that many anti-ulcer agents display, as does atropine, a remarkable but undesired anti-cholinergic activity, some derivatives were assessed for their antagonism against chromodacryorrhea induced by carbacholine in rats. (Winburg M. et al, J. Pharm. Exp. Therap., 1949, 95, 53).

gastric secretion = experiment: Inhibition of Gastric Secretion in Rats (pylorus ligature); assay type: in vivo, Sprague-Dawley rats (male); details: Rattus norvegicus, sc, 4 h, s.c. at the time of ligature, read-out: ED50 Antisecretory s.c.
Protocol: (2) Inhibition of Gastric Secretion in Rats (Shay, Gastroenterology, 1945, 43, 5).
Gastric antisecretory activity was evaluated in rats by the pylorus ligature technique. Six Sprague-Dawley male rats (110-130 g) were used for each group. Twenty-four hours before the test, the rats were deprived of food but their water supply was maintained. On the day of the operation, the pylorus was ligated under light ether anaesthesia. Four hours after the ligature, the rats were sacrificed, the stomach secretion was collected and centrifuged at 3500 r.p.m. for 10 minutes, and the volume, less sediment, was determined.
The amount of the free hydrochloric acid in the gastric juice was determined by titration against 0.01 N sodium hydroxide, using Topfer's Indicator. Each compound was injected subcutaneously at the time of ligature.

restraint ulcer = experiment: Inhibition of Restraint Ulcer in Rats; assay type: in vivo, Sprague-Dawley rats (male); details: Rattus norvegicus
Protocol: (B 1) Inhibition of Restraint Ulcer in Rats (Bonfils et al, Therapie, 1960, 15, 1096).
Six Sprague - Dawley male rats (100-120 g) fasted for 24 hours were used for each group. A square flexible small-mesh wire netting was used for immobilization. After 4 hours immobilization the rats were sacrificed, their stomachs were removed, and lesions counted under a dissecting microscope.
The results obtained are reported below in Table 1, wherein the values are given as ED50.
The compounds were administered subcutaneously (s.c.) immediately before the immobilization or orally (os) one hour before.

[2] = test system: cysteamine-induced duodenal lesions; experiment: Inhibition of Cysteamine-Induced Duodenal Lesions in Rats; assay type: in vivo, Sprague-Dawley rats (male); details: Rattus norvegicus
Protocol: (5) Inhibition of Cysteamine-Induced Duodenal Lesions in Rats.
Six Sprague-Dawley male rats (200-225 g) were used for each group. Twenty-four hours before the test, the rats were deprived of food but allowed free access to water. Cysteamine HCl (400 mg/Kg) dissolved in physiological saline was administered subcutaneously.
Antagonists were given orally 60 minutes, and subcutaneously 30 minutes, before the cysteamine treatment. The animals were kept fasting completely for 18-24 hours after cysteamine administration, then sacrificed by an overdose of ether.
The stomach and duodenum of each rat were excised to determine the presence of gastroduodenal lesions. The sum of the area (mm^2) of lesions for each rat was measured under a dissecting microscope (10X) with a square grid and then used as an ulcer index. The percentage inhibition was calculated in respect of the ulcer index of the control group.

Toxicity (LD50) in mice = details: mouse, in vivo, po, os
Protocol: Four compounds were examined also for the activity on acetylsalicyclic acid- and cysteamine-induced ulcers and their toxicity was also determined in mice.

[3] = test system: acetylsalicylic acid-induced gastric ulcers; experiment: Inhibition of Acetylsalicylic Acid-Induced Gastric Ulcers in Rats; assay type: in vivo, Sprague-Dawley rats (male); details: Rattus norvegicus, 4 h
Protocol: (4) Inhibition of Acetylsalicylic Acid-Induced Gastric Ulcers in Rats.
Six Sprague-Dawley male rats (200-250 g) were used for each group. Twenty-four hours before the test, the rats were deprived of food but their water supply was maintained. Acetylsalicylic acid (100 mg/Kg) suspended in 5% gum arabic solution was given orally to the rats. Antagonists, at 3 dose levels, were given orally 60 minutes, and subcutaneously 30 minutes, before the acetylsalicylic acid treatment.
After sacrificing the animals, four hours after administration of the antagonist, the stomachs were removed, slightly inflated and immersed in 1% formalin solution for 10 minutes for fixation.
Subsequently, the stomachs were incised along the greater curvature and the lengths of lesions measured under a dissecting microscope (10 X) with a square grid. The sum of the lengths (mm) of the lesions per rat was used as the ulcer index. The percentage inhibition was calculated in respect of the ulcer index of the control group.

[4] = po, os, read-out: ED50 Anticholinergic os
[5] = sc, read-out: ED50 Anticholinergic s.c.
[6] = po, 1 h, orally one hour before immobilization, read-out: ED50 Antiulcer os
[7] = sc, 4 h, s.c. immediately before the immobilization, read-out: ED50 Antiulcer s.c.
[8] = po, orally 60 minutes before cysteamine, read-out: ED50 Cysteamine os
[9] = sc, s.c. 30 minutes before cysteamine, read-out: ED50 Cysteamine s.c.
[10] = po, orally 60 minutes before acetylsalicylic acid, read-out: ED50 Acetylsalicilic acid os
[11] = sc, s.c. 30 minutes before acetylsalicylic acid, read-out: ED50 Acetylsalicilic acid s.c.

Molecule `CC(C)NC(=S)N1CCc2c(ncn2C)C1` [I CH3 H i.Pr, 1-Methyl-5-(N-isopropylthiocarbamoyl)-4,5,6,7-tetrahydroimidazo-[4,5-c]-pyridine] has an ED50 [1, 4] of 100 mg/kg, an ED50 [1, 5] of 25 mg/kg and an ED50 (gastric secretion) of 26 mg/kg. It also gave an ED50 (restraint ulcer; [6]) of 4.5 mg/kg and an ED50 (restraint ulcer; [7]) of 1.2 mg/kg.

Work on `CCC1c2c(ncn2C)CCN1C(=S)NC(C)C` (stereo not drawn) [II CH3 C2 H5 i.Pr, 3-Methyl-4-ethyl-5-(N-isopropylthiocarbamoyl)-4,5,6,7-tetrahydroimidazo-[4,5-c]-pyridine, reference compound] yielded an ED50 [1, 4] of 60 mg/kg, an ED50 [1, 5] of 40 mg/kg and an ED50 [2, 8] of 100 mg/kg. For the same molecule, the ED50 [2, 9] was 50 mg/kg, the LD50 (Toxicity (LD50) in mice) was 980 mg/kg and the ED50 (gastric secretion) was 50 mg/kg. The ED50 [3, 10] was 40 mg/kg, the ED50 [3, 11] was 25 mg/kg and the ED50 (restraint ulcer; [6]) was 50 mg/kg. It also gave an ED50 (restraint ulcer; [7]) of 10 mg/kg.

In the case of `CNC(=S)N1CCc2ncn(C)c2C1` [II CH3 H CH3, reference compound], the ED50 [1, 4] was 100 mg/kg, the ED50 [1, 5] was 50 mg/kg and the ED50 (gastric secretion) was 50 mg/kg. It also gave an ED50 (restraint ulcer; [6]) of 50 mg/kg and an ED50 (restraint ulcer; [7]) of 50 mg/kg.

In the case of `CC(C)NC(=S)N1CCc2ncn(C)c2C1` [II CH3 H i.Pr, 3-Methyl-5-(N-isopropylthiocarbamoyl)-4,5,6,7-tetrahydroimidazo-[4,5-c]-pyridine], the ED50 [1, 4] was 50 mg/kg and the ED50 [1, 5] was 7 mg/kg.

Work on `CCC1c2c(ncn2CC)CCN1C(=S)NC(C)C` (stereo not drawn) [II C2 H5 C2 H5 i.Pr, 3,4-diethyl-5-(N-isopropylthiocarbamoyl)-4,5,6,7-tetrahydroimidazo-[4,5-c]-pyridine, reference compound] yielded an ED50 [1, 4] of over 100 mg/kg, an ED50 [1, 5] of over 100 mg/kg and an ED50 [2, 8] of 40 mg/kg. The ED50 [2, 9] was 5.5 mg/kg, the LD50 (Toxicity (LD50) in mice) was 870 mg/kg and the ED50 (gastric secretion) was 10 mg/kg. For the same molecule, the ED50 [3, 10] was 9 mg/kg and the ED50 [3, 11] was 6.5 mg/kg.

`CCC1c2ncn(C)c2CCN1C(=S)NC(C)C` (stereo not drawn) [I CH3 C2 H5 i.Pr, 1-Methyl-4-ethyl-5-(N-isopropylthiocarbamoyl)-4,5,6,7-tetrahydroimidazo-[4,5-c]-pyridine] gave an ED50 [1, 4] of over 100 mg/kg, an ED50 [1, 5] of over 100 mg/kg and an ED50 [2, 8] of 40 mg/kg. It also gave an ED50 [2, 9] of 20 mg/kg, an LD50 (Toxicity (LD50) in mice) of over 2500 mg/kg and an ED50 (gastric secretion) of 20 mg/kg. For the same molecule, the ED50 [3, 10] was 20 mg/kg, the ED50 [3, 11] was 10 mg/kg and the ED50 (restraint ulcer; [6]) was 2.5 mg/kg. The ED50 (restraint ulcer; [7]) was 4 mg/kg.

For `CNC(=S)N1CCc2c(ncn2C)C1` [I CH3 H CH3, 1-Methyl-5-(N-methylthiocarbamoyl)-4,5,6,7-tetrahydroimidazo-[4,5-c]-pyridine], the ED50 [1, 4] was over 100 mg/kg, the ED50 [1, 5] was over 100 mg/kg and the ED50 (gastric secretion) was 30 mg/kg. The ED50 (restraint ulcer; [6]) was 25 mg/kg and the ED50 (restraint ulcer; [7]) was 15 mg/kg.

With `CCC1c2ncn(CC)c2CCN1C(=S)NC(C)C` (stereo not drawn) [I C2 H5 C2 H5 i.Pr, 1,4-Diethyl-5-(N-isopropylthiocarbamoyl)-4,5,6,7-tetrahydroimidazo-[4,5-c]-pyridine] the ED50 [1, 4] was over 400 mg/kg, the ED50 [1, 5] was over 200 mg/kg and the ED50 [2, 8] was 10 mg/kg. It also gave an ED50 [2, 9] of 0.5 mg/kg, an LD50 (Toxicity (LD50) in mice) of over 2500 mg/kg and an ED50 (gastric secretion) of 6 mg/kg. It also gave an ED50 [3, 10] of 0.7 mg/kg, an ED50 [3, 11] of 0.7 mg/kg and an ED50 (restraint ulcer; [6]) of 3.5 mg/kg. For the same molecule, the ED50 (restraint ulcer; [7]) was 2 mg/kg.

For `C/N=C(\S)NCCSCc1[nH]cnc1C` [Methiamide], the ED50 [1, 4] was 85 mg/kg and the ED50 [1, 5] was 65 mg/kg.
